A short description of data set [1]: log P by HPLC on reversed-phase column (C 18), EEC Directive 79/831 Annex V.A8. It counts as physicochemical. As to conditions: HPLC C 18, 40° C., 0.1% aqueous formic acid and acetonitrile, gradient 10% to 90% acetonitrile; for chromatographic logP: reversed-phase HPLC column (C 18). The protocol: In table 1, the log P values were determined in accordance with EEC Directive 79/831 Annex V.A8 by HPLC (High Performance Liquid Chromatography) on a reversed-phase column (C 18), using the method described below: Temperature: 40° C.; Mobile phases: 0.1% aqueous formic acid and acetonitrile; linear gradient from 10% acetonitrile to 90% acetonitrile. Calibration was carried out using unbranched alkan-2-ones (comprising 3 to 16 carbon atoms) with known log P values (determination of the log P values by the retention times using linear interpolation between two successive alkanones). lambda-max-values were determined using UV-spectra from 200 nm to 400 nm and the peak values of the chromatographic signals.

Another data set deals with Puccinia recondita. As to the kind of experiment: In vivo preventive test on Puccinia recondita (brown rust on wheat). As to conditions: for Efficacy (Table C2) / protection / Efficacy (Table C3): in very similar conditions; for Efficacy (Table C2) / Efficacy (Table C3): prior-art analogues; for Efficacy at 100 ppm (Table C1) / Efficacy at 500 ppm (Table C1): very similar conditions, formulated in DMF with 2% of alkylarylpolyglycolether. The method, then: Example C: In Vivo Preventive Test on Puccinia recondita (Brown Rust on Wheat) […]
The young plants of wheat are treated by spraying the active ingredient prepared as described above. […]
After 24 hours, the plants are contaminated by spraying the leaves with an aqueous suspension of Puccinia recondita spores. The contaminated wheat plants are incubated for 24 hours at 20° C. and at 100% relative humidity and then for 10 days at 20° C. and at 70-80% relative humidity.
The test is evaluated 11 days after the inoculation. 0% means an efficacy which corresponds to that of the control plants while an efficacy of 100% means that no disease is observed.

The mark [2] stands for this setting: dose of 500 and 125 ppm, analogues of WO2009/016222 and WO2008/037789.
Setting [3] is: dose of 500 and 100 ppm, analogues of WO2012/059497.

Molecules are shown by their SMILES.

`Cn1cc(C(=O)N(Cc2cc(Br)cnc2Sc2cnc3ccccc3c2)C2CC2)c(C(F)F)n1` [Example I.57]: the logP (commonly the decadic logarithm of the partition coefficient of the neutral form, usually between octanol and water) in data set [1] is given as 3.27.
On the same count and under the same terms, to `Cc1cc(C(=O)N(Cc2sccc2-c2ccc(C)s2)C2CC2)c(C)o1` [I.10] belongs 4.54.
On the same count and under the same terms, then `Cn1nc(C(F)F)c(C(=O)N(Cc2ncc(C(F)(F)F)cc2-c2csc3ccccc23)C2CC2)c1F` [I.20], with 4.46.
Same read-out and setting: then `Cc1ccc(-c2ccsc2CN(C(=O)c2cn(C)cc2C(F)(F)F)C2CC2)s1` [I.09], with 4.18; and `Cc1ccc(-c2ccsc2CN(C(=O)c2sc(C)nc2C(F)F)C2CC2)s1` [I.06], with 4.08.
On to `Cc1nn(C)c(F)c1C(=O)N(Cc1ccc(Oc2ccccc2)nc1)C1CC1` [35 from WO-2008/037789, N-cyclopropyl-5-fluoro-1,3-dimethyl-N-[(6-phenoxypyridin-3-yl)methyl]-1H-pyrazole-4-carboxamide], for which the “Efficacy (Table C2)” value in the data set on Puccinia recondita (dose 125 ppm) and with Puccinia recondita (dose 500 ppm) was 0% throughout. For the same molecule, the protection result in the data set on Puccinia recondita (setting [2]) is given as “good (at least 70%) to no protection”.
On to `Cn1cc(C(=O)N(Cc2ncc(C(F)(F)F)cc2-c2ccco2)C2CC2)c(C(F)F)n1` [I.40], for which the logP in data set [1] is 3.29.
Still for that read-out and setting: to `Cn1nc(C(F)F)c(C(=O)N(Cc2ncc(C(F)(F)F)cc2-c2cc3ccccc3s2)C2CC2)c1F` [I.25] belongs 4.73.
The same measure, in the same setting: then `Cn1nc(C(F)F)c(C(=O)N(Cc2ncc(C(F)(F)F)cc2-c2ccco2)C2CC2)c1F` [I.30], with 3.68.
`Cn1nc(C(F)F)c(C(=O)N(Cc2cc(-c3ccc(Cl)cc3)no2)C2CC2)c1F` [153 from WO2012/059497, N-{[3-(4-chlorophenyl)-1,2-oxazol-5-yl]methyl}-N-cyclopropyl-3-(difluoromethyl)-5-fluoro-1-methyl-1H-pyrazole-4-carboxamide]: in the data set with Puccinia recondita, the “Efficacy at 100 ppm (Table C1)” value worked out at 10% and the “Efficacy at 500 ppm (Table C1)” value is reported as 80%. Besides, the protection entry in the data set with Puccinia recondita (setting [3]) is “good (at least 80%) to no protection”.
For `Cn1nc(C(F)F)c(C(=O)N(Cc2cc3ccccc3n2-c2ccccc2)C2CC2)c1F` [155 from WO2012/059497, N-cyclopropyl-3-(difluoromethyl)-5-fluoro-1-methyl-N-[(1-phenyl-1H-indol-2-yl)methyl]-1H-pyrazole-4-carboxamide] the same measures were 0%, 20% and “good (at least 80%) to no protection”.
Consider `Cc1ccc(-c2ccsc2CN(C(=O)c2nn(C)nc2C(F)F)C2CC2)s1` [I.07], for which the log partition coefficient (logP) in data set [1] came out at 4.11.
Same read-out and setting: then `Cn1cc(C(=O)N(Cc2ncc(C(F)(F)F)cc2-c2coc3ccccc23)C2CC2)c(C(F)F)n1` [I.43], with 3.73.
As to `Cn1cc(C(=O)N(Cc2ncc(C(F)(F)F)cc2-c2ccnc3cc(Cl)ccc23)C2CC2)c(C(F)F)n1` [I.45], the logP in data set [1] is on record as 3.27.
Same read-out and setting: to `Cc1ccc(-c2ccsc2CN(C(=O)c2ccsc2Br)C2CC2)s1` [I.08] belongs 4.69; to `Cn1cc(C(=O)N(Cc2ncc(C(F)(F)F)cc2-c2cccs2)C2CC2)c(C(F)F)n1` [I.39], 3.46.
On the same count and under the same terms, then `Cn1ccc(-c2c(CN(C(=O)c3c(C(F)F)nn(C)c3F)C3CC3)sc3ccccc23)c1` [I.51], with 3.89; and `Cn1nc(C(F)F)c(C(=S)N(Cc2ncc(C(F)(F)F)cc2-c2ccoc2)C2CC2)c1F` [I.36], with 4.03.
The same measure, in the same setting: to `Cc1noc(C)c1-c1c(CN(C(=O)c2c(C(F)F)nn(C)c2F)C2CC2)sc2ccccc12` [Example I.55] belongs 3.51.
In the case of `Cn1cc(C(=O)N(Cc2ccc(Oc3ccccc3)nc2)C2CC2)c(C(F)F)n1` [36 from WO-2008/037789, N-cyclopropyl-3-(difluoromethyl)-1-methyl-N-[(6-phenoxypyridin-3-yl)methyl]-1H-pyrazole-4-carboxamide], the “Efficacy (Table C2)” value in the data set with Puccinia recondita (dose 125 ppm) and with Puccinia recondita (dose 500 ppm) was 0% each time. Moreover, the protection result with Puccinia recondita (setting [2]) is “good (at least 70%) to no protection”.
For `Cn1nc(C(=O)N(Cc2nc(-c3ccc(Cl)cc3)cs2)C2CC2)c(C(F)(F)F)n1` [50 from WO2008/015189, N-{[4-(4-chlorophenyl)-1,3-thiazol-2-yl]methyl}-N-cyclopropyl-2-methyl-5-(trifluoromethyl)-2H-1,2,3-triazole-4-carboxamide], the “Efficacy (Table C3)” value in the data set on Puccinia recondita (dose 500 ppm) stood at 0%.
`Cc1ccc(-c2cc(C(F)(F)F)cnc2CN(C(=O)c2c(C(F)F)nn(C)c2F)C2CC2)o1` [I.33] returned a logP in data set [1] of 3.69.
As for `Cn1nc(C(F)F)c(C(=O)N(Cc2ncc(C(F)(F)F)cc2-c2ccsc2)C2CC2)c1F` [I.17, N-cyclopropyl-3-(difluoromethyl)-5-fluoro-1-methyl-N-{[3-(3-thienyl)-5-(trifluoromethyl)pyridin-2-yl]methyl}-1H-pyrazole-4-carboxamide], in data set [1], the chromatographic logP (usually a lipophilicity value derived from retention on a column) stood at 3.67.
In data set [1], `Cn1cc(C(=O)N(Cc2ncc(C(F)(F)F)cc2-c2cnc3ccccc3c2)C2CC2)c(C(F)F)n1` [I.44] came in with a logP of 2.82.
On to `Cc1nn(C)c(F)c1C(=O)N(Cc1nc(-c2ccc(Cl)cc2)cs1)C1CC1` [12 from WO2008/015189, N-{[4-(4-chlorophenyl)-1,3-thiazol-2-yl]methyl}-N-cyclopropyl-5-fluoro-1,3-dimethyl-1H-pyrazole-4-carboxamide], for which the “Efficacy (Table C3)” value in the data set on Puccinia recondita (dose 500 ppm) came out at 0%.
In data set [1], `Cn1cncc1-c1c(CN(C(=O)c2c(C(F)F)nn(C)c2F)C2CC2)sc2ccccc12` [I.48] showed a logP of 1.66.
Same read-out and setting: then `Cn1nc(C(F)F)c(C(=S)N(Cc2ncc(C(F)(F)F)cc2-c2cnc3ccccc3c2)C2CC2)c1F` [I.35], with 3.90.
As for `Cc1cscc1-c1cc(C(F)(F)F)cnc1CN(C(=O)c1c(C(F)F)nn(C)c1F)C1CC1` [I.22], the logP in data set [1] is on record as 4.12.
On to `Cc1ccc(-c2ccsc2CNC2CC2)s1` [IIb.01, N-[(5-methyl-2,3′-bithiophen-2′-yl)methyl]cyclopropanamine], for which the chromatographic logP in data set [1] was determined as 1.39.
`Cn1nc(C(F)F)c(C(=O)N(Cc2ncc(C(F)(F)F)cc2-c2ccc(Cl)s2)C2CC2)c1F` [I.18] registered a logP in data set [1] of 4.54.
In data set [1], `Cn1nc(C(F)F)c(C(=O)N(Cc2ncc(C(F)(F)F)cc2-c2ccoc2)C2CC2)c1F` [I.26] came in with a logP of 3.48.
`Cc1ccsc1-c1cc(C(F)(F)F)cnc1CN(C(=O)c1c(C(F)F)nn(C)c1F)C1CC1` [I.34] displayed a logP in data set [1] of 4.11.
As for `Cn1nc(C(F)F)c(C(=O)N(Cc2nn(-c3ccccc3)cc2C2CCOCC2)C2CC2)c1F` [I.04], the logP in data set [1] is on record as 3.15.
In data set [1], `Cn1nc(C(F)F)c(C(=O)N(Cc2ncc(C(F)(F)F)cc2Cl)C2CC2)c1F` [N-{[3-chloro-5-(trifluoromethyl)pyridin-2-yl]methyl}-N-cyclopropyl-3-(difluoromethyl)-5-fluoro-1-methyl-1H-pyrazole-4-carboxamide] gave a chromatographic logP of 3.35.
For the molecule `CC(=O)c1ccc(-c2cc(C(F)(F)F)cnc2CN(C(=O)c2c(C(F)F)nn(C)c2F)C2CC2)s1` [I.24], the logP in data set [1] was 3.48.
In data set [1], `Cc1csc(-c2cc(C(F)(F)F)cnc2CN(C(=O)c2c(C(F)F)nn(C)c2F)C2CC2)c1` [I.32] showed a logP of 4.27.
Same read-out and setting: then `Cc1occc1-c1c(CN(C(=O)c2c(C(F)F)nn(C)c2F)C2CC2)sc2ccccc12` [I.52], with 4.20.
As for `Cn1cc(C(=O)N(Cc2ncc(C(F)(F)F)cc2-c2csc3ccccc23)C2CC2)c(C(F)F)n1` [I.42], the logP in data set [1] turned out to be 3.92.
In data set [1], `Cn1cc(C(=O)N(Cc2ncc(C(F)(F)F)cc2-c2ccoc2)C2CC2)c(C(F)F)n1` [I.46] displayed a logP of 3.15.
On the same count and under the same terms, then `Cn1cc(C(=O)N(Cc2cc(Br)cnc2Oc2cnc3ccccc3c2)C2CC2)c(C(F)F)n1` [Example I.56], with 3.09; and `Cn1cc(C(=O)N(Cc2cc(Br)cnc2Sc2nccs2)C2CC2)c(C(F)F)n1` [Example I.58], with 3.09.
On the same count and under the same terms, to `Cc1cscc1-c1cc(C(F)(F)F)cnc1CN(C(=O)c1cn(C)nc1C(F)F)C1CC1` [I.38] belongs 3.69.
In data set [1], `Cn1nc(C(F)F)c(C(=O)N(Cc2ncc(C(F)(F)F)cc2-c2cnc3ccccc3c2)C2CC2)c1F` [I.27] gave a logP of 3.25.
On the same count and under the same terms, then `Cn1nc(C(F)F)c(C(=O)N(Cc2ncc(C(F)(F)F)cc2-c2cc3ccccc3nc2O)C2CC2)c1F` [I.28], with 2.76.
The same measure, in the same setting: to `Cn1nc(C(F)F)c(C(=O)N(Cc2nn(-c3ccccc3)cc2C2=CCOCC2)C2CC2)c1F` [I.02] belongs 3.26; to `CC(C)c1nc(-c2c(CN(C(=O)c3c(C(F)F)nn(C)c3F)C3CC3)sc3ccccc23)cs1` [I.49], 4.61.
As for `Cn1nc(C(F)F)c(C(=S)N(Cc2nn(-c3ccccc3)cc2-c2ccc3c(ccn3C)c2)C2CC2)c1F` [I.05], the logP in data set [1] is 4.64.
On the same count and under the same terms, then `Cn1nc(C(F)F)c(C(=O)N(Cc2sc3ccccc3c2-c2cncnc2)C2CC2)c1F` [I.54], with 2.76.

The values are drawn from patent US10076116B2, “N-cycloalkyl-N-(biheterocyclymethylene)-(thio)carboxamide derivatives” (BAYER CROPSCIENCE AKTIENGESELLSCHAFT, priority 2013, dated 2018).
